Data: patent EP4803094A2, “GLP-1/GIP DUAL, GLP-1/GCG DUAL AND GLP-1/GIP/GCG TRIPLE RECEPTOR AGONISTS” (Sun Pharmaceutical Industries Limited, priority 2023, dated 2024)
Marks after values point to notes of the source that are not given here.

Experiments:
[1] = target: GLP-1R (Homo sapiens, UniProt P43220); assay: Hit Hunter cAMP assay in cells stably expressing GLP-1R; format: cell-based; conditions: GLP-1R-expressing cells, values in nM
Excerpt: (§1) Stably expressing GLP-1R, GIPR or GCGR cell lines were used to determine in-vitro potency of the compounds as described herein. Signaling by the GLP-1R, GIP-R, and GCG-R involves activation of adenylate cyclase and cAMP production. Hit Hunter® cAMP assays monitor the activation of GLP-1R, GIPR or GCGR via Gi and Gs secondary messenger signaling using a technology developed by DiscoverX which is called Enzyme Fragment Complementation (EFC) with β-galactosidase (β-Gal) as the functional reporter. The enzyme is split into two complementary portions: EA for Enzyme Acceptor and ED for Enzyme Donor. ED is fused to cAMP and in the assay competes with cAMP generated by cells for binding to a cAMP-specific antibody. Active β-Gal is formed by complementation of exogenous EA to any unbound ED cAMP. Active enzyme can then convert a chemiluminescent substrate, generating an output signal detectable on a standard microplate reader. Three different assays were performed using cells expressing either of the three receptors. cAMP Hunter cell lines were expanded from freezer stocks according to standard procedures. […] Microplates were read following signal generation with a PerkinElmer EnvisionTM instrument for chemiluminescent signal detection. […] Four parametric logistic curve was generated and EC50 was determined. […]

[2] = target: GCGR (Homo sapiens, UniProt P47871); assay: Hit Hunter cAMP assay in cells stably expressing GCGR; format: cell-based; conditions: values in nM, read-out: EC50 value GCG
GCGR, sequence (P47871 26-477, species assumed): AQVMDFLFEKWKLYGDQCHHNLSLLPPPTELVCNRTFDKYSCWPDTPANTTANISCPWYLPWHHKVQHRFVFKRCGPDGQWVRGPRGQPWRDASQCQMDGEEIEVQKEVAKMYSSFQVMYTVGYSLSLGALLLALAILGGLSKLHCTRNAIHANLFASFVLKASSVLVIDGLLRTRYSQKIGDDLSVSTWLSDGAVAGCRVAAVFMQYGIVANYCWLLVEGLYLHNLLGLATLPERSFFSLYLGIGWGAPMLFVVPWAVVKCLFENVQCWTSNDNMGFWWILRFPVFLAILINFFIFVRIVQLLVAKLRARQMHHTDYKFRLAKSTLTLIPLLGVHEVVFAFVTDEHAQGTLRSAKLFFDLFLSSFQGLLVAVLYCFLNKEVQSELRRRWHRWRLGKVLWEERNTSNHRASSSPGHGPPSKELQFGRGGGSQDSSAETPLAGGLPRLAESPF
Excerpt: as §1

[3] = test system: Type 2 diabetes mouse (db/db) model; assay: Efficacy study in db/db mice (blood glucose, body weight, food consumption); format: in vivo; conditions: 10 nM/kg s.c. single dose, mean (n=6)
Experimental: The effect of the compounds as described herein on blood glucose, food intake and body weight were studied in mice. This study was performed in Type 2 diabetes mouse (db/db) model. The animals were divided into 9 treatment groups (n=6): a diabetic control group, Compound 12 (10 nM/kg), Compound 13 (10 nM/kg), Compound 26 (10 nM/kg), Compound 14 (10 nM/kg), Compound 15 (10 nM/kg), Compound 21 (10 nM/kg), Compound 22 (10 nM/kg), and Tirzepatide (10 nM/kg). Baseline blood glucose was measured from all the animals. All the animals were administered with test item subcutaneously. Blood glucose was measured at 4 hr, 8 hr, 12 hr, 24 hr, 48 hr, 72 hr, and 96 hr post treatment. Delta blood glucose (mM) was calculated. Body weight changes and cumulative food consumption were measured at 48 hr and 96 hr post treatment. Table 3. Effect on Blood Glucose

[4] = target: T1, GIPR (Homo sapiens, UniProt P48546); assay: Hit Hunter cAMP assay in cells stably expressing GIPR; format: cell-based; conditions: values in nM, read-out: EC50 value GIP
T1 sequence (P48546 22-466): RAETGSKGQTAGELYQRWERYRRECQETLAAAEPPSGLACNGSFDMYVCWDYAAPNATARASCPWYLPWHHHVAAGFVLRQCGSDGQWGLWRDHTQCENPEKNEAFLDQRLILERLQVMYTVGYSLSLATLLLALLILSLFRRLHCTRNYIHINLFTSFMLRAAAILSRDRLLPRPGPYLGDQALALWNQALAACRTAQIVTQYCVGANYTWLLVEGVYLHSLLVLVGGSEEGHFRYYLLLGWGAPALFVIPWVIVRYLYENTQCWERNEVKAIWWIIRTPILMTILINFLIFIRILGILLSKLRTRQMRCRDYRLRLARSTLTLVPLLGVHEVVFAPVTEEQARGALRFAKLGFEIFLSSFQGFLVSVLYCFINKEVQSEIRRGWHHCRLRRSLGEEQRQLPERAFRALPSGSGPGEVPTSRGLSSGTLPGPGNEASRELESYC
Excerpt: as §1

GLP-1R, sequence (P43220 24-463, species assumed): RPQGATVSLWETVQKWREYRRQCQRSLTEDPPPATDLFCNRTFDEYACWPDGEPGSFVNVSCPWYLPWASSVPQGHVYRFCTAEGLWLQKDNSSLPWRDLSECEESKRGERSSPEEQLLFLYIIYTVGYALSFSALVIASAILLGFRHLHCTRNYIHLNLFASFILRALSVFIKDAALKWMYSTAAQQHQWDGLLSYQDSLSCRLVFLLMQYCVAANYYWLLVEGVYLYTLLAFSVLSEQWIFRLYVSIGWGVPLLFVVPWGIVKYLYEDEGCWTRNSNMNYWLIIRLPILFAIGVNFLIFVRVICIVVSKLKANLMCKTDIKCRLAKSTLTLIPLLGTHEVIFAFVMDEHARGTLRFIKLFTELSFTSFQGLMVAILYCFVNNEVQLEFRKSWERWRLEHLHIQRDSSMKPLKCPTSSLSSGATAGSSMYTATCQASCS

CC[C@H](C)[C@H](NC(=O)[C@H](Cc1ccccc1)NC(=O)[C@H](C)NC(=O)C(C)(C)NC(=O)[C@H](CCC(N)=O)NC(=O)[C@H](C)NC(=O)[C@H](CCCCNC(=O)COCCOCCNC(=O)C(C)(C)NC(=O)CC[C@H](NC(=O)CCCCCCCCCCCCCCCCCCC(=O)O)C(=O)O)NC(=O)[C@H](CCCCN)NC(=O)[C@H](CC(=O)O)NC(=O)[C@H](CC(C)C)NC(=O)[C@](C)(CC(C)C)NC(=O)[C@@H](NC(=O)[C@H](CO)NC(=O)[C@H](Cc1ccc(O)cc1)NC(=O)[C@H](CC(=O)O)NC(=O)[C@H](CO)NC(=O)[C@@H](NC(=O)[C@H](Cc1ccccc1)NC(=O)[C@@H](NC(=O)CNC(=O)[C@H](CCC(N)=O)NC(=O)C(C)(C)NC(=O)[C@@H](N)Cc1ccc(O)cc1)[C@@H](C)O)[C@@H](C)O)[C@@H](C)CC)C(=O)N[C@@H](CCC(=O)O)C(=O)N[C@@H](Cc1ccc(O)cc1)C(=O)N[C@@H](CC(C)C)C(=O)N[C@@H](CC(C)C)C(=O)N[C@@H](CCC(=O)O)C(=O)NCC(=O)NCC(=O)N1CCC[C@H]1C(=O)N[C@@H](CO)C(=O)N[C@@H](CO)C(=O)NCC(=O)N[C@@H](C)C(=O)N1CCC[C@H]1C(=O)N1CCC[C@H]1C(=O)N1CCC[C@H]1C(=O)N[C@@H](CO)C(N)=O [Compound 13]
EC50 [1]: > 2.4 nM | EC50 [2]: > 1.8 nM | Cumulative Food Consumption (g) 0-48 hr ([3]; 0-48 hr): 4.1*** g | Cumulative Food Consumption (g) 0-96 hr ([3]; 0-96 hr): 11.2*** g | Delta Blood Glucose (mM) ([3]; 4 hr post treatment): -7.4* mM | Delta Blood Glucose ([3]; 8 hr post treatment): -5.7 mM | Delta Blood Glucose (mM) ([3]; 12 hr post treatment): -9.4** mM | Delta Blood Glucose (mM) ([3]; 24 hr post treatment): -14.4*** mM | Delta Blood Glucose (mM) ([3]; 48 hr post treatment): -13.9*** mM | Body Weight Change (%) 48 hr ([3]; 48 hr): -10.3*** % | Delta Blood Glucose (mM) ([3]; 72 hr post treatment): -12.1*** mM | Delta Blood Glucose ([3]; 96 hr post treatment): -5.6 mM | Body Weight Change (%) 96 hr ([3]; 96 hr): -6.3*** % | EC50 [4]: > 1.5 nM
